Data set [1] concerns MCF-7 human mammary carcinoma cell line. Type of data set: cell-based. The source says:
(§1) MXT estrogen-independen mouse mammary carcinoma cell line was obtained from Dr. Gunter Berndhart, University of Regensburg, Germany. All the other cell lines used in the determination of the antiproliferative activity of the compounds of this invention were obtained from the American Type Culture Collection (ATCC).
(§2) For the evaluation of the activity of the analogs, a colorimetric cytotoxicity assay in microtitration plates was used based on quantification of biomass by staining cells with crystal violet, which correlates very well with determination of cell numbers. (Reile et al.; Anal. Biochem. 187, 262-267, 1990; Bernhardt G. et al, J. Cancer Res. Clin. Oncol. (1992), 118, 35-43; Spruss Th. et al, J. Cancer Res. Clin. Oncol 117, 435-443, 1991; Gillies, R. J., Anal. Biochem. 159, 109-113, 1986; Kueng, W. et al.; Anal. Biochem., 182 16-19, 1989.)
(§3) One to two days after seeding cells in 96-well plates the culture medium is exchanged with fresh medium containing the compounds to be tested and fresh medium only for the control cultures. After varying time of incubation, cells are fixed with glutaric dialdehyde and stored under […] at 4° C. until the end of the experiment. Cells are stained with crystal violet and bound stain is extracted with 70% aqueous EtOH. Optical density is measured with EIA Reader (Bio-Tek Instruments) or Biomek 1000 (Beckman) at 590 nm or 600 nm, respectively. Each data point represents the mean value of eight culture wells. T/C values are calculated as T/C=(T-C0)/(C-C0) where T=optical density of treated cultures, C=optical density of control (untreated) cultures, C0 =optical density of cultures at the start of incubation (t=0).
Cells were incubated in IMEM media containing 5% Hl:DCC-FBS (heat inactivated dextran coated charcoal treated fetal bovine serum) on 96 well plates. Relative cell number in treated and control plates was determined by the crystal violet staining method and was expressed as T/C values where T/C=T-C0 /C-C0×100 [T=absorbance of treated cultures, C= absorbance of control cultures, C0 =absorbance of cultures at the start of incubation (t=0). The measured absorbance is proportionate to the cell number.]

The test system of data set [2] is estrogen independent MXT mouse mammary cancers. The data set is described as follows: Effect of cytotoxic LH-RH analogs on estrogen independent MXT mouse mammary cancers (KS-47). Type of data set: in vivo. The procedure: MXT (3.2) ovex tumor pieces (1 mm^3) were transplanted in female B6 D2 F1 mice. The treatment started one day after transplantation and was continued for 12 days by i.p. injections once a day. Tumors were measured on days 10, 14 and 18, and tumor volume was calculated.

For data set [3] the test system is unchanged. As to the kind of experiment: Earlier experiment with Q2 daily dosing (tumor growth, survival).
Data set [4] concerns MIIA PaCa-2 Human Pancreatic Cancer Cell Line. As to the kind of experiment: Growth of MIIA PaCa-2 cells in vitro (crystal violet T/C). Type of data set: cell-based.
Excerpt: as §2, §3
Cells were incubated in RPMI 1640 media containing 10% fetal bovine serum on 96 well plates. [drawing 8]

The test system of data set [5] is growth hormone release from superfused rat pituitary cells. The data set is described as follows: Inhibition of hGH-RH(1-29)NH2 induced GH release, rat pituitary superfusion system. It counts as cell-based. The protocol:
Accordingly, this method was used to compare the cytotoxic somatostatin analogs of the present invention to their parent carrier molecules with respect to their hormonal activities.
In rat pituitary superfusion system, the somatostatin analogs were administered for 3 min at 1 nM dose simultaneously with 1 nM hGH-RH(1-29)NH2. The infusion of the somatostatin analogs was maintained for another 6 min. GH responses to 3 min administration of 1 nM hGH-RH(1-29)NH2 were determined during the perfusion of the somatostatin analogs (0 min) and 30, 60 and 90 min after the administration stopped.

The subject of data set [6] is estrogen independent MXT mouse mammary cancers. As to the kind of experiment: Treatment of estrogen independent MXT mouse mammary cancers (KS-49). As to conditions: for Average survival: 520 nmol/inj. i.p., 3 weeks, total 1560 nmol (Group 13). It counts as in vivo. The text has this:
In order to compare the tumor inhibitory activity of cytotoxic doxorubicin derivative, Q6 and its targeted cytotoxic peptide conjugate, Q6^14 gL as well as the well known antineoplastic agent, DOX and to determine the optimal way of administration and the nontoxic doses, LH-RH receptor positive MXT (3.2) ovex tumor pieces (1 mm^3) were implanted s. c. in female B6 D2 F1 mice. One day after transplantation the mice were randomly divided into groups of five animals and the treatment started. The compounds were dissolved in 0.1% trifluoroacetic acid (pH 2) and given intraperitoneally.

Data set [7] concerns CFPAC-1 Human Pancreatic Cancer Cell. As to the kind of experiment: Growth of CFPAC-1 cells in vitro (crystal violet T/C). Type of data set: cell-based.
Excerpt: as §2, §3

Data set [8] relates to estrogen independent MXT mouse mammary cancers. As to the kind of experiment: Single treatment of estrogen independent MXT mouse mammary cancers (KS-55). Type of data set: in vivo. The protocol:
In order to determine the maximum tolerated doses and compare the effects, MXT (3.2) ovex tumor pieces (1 mm^3) were implanted s.c. in female B6 D2 F1 mice. One day after transplantation the mice were randomly divided into groups of five animals and they were treated with a single injection i.p. The groups and doses are shown in the Table 25-1. […] The compounds were dissolved in 0.1% TFA (pH: 2.0). Tumor volume was measured on days 10, 13, 17, and 20.

Data set [9] deals with MXT estrogen independent mouse mammary carcinoma cell line. As to the kind of experiment: In vitro cytotoxic activity, crystal violet colorimetric assay on MXT. It counts as cell-based.
Excerpt: as §1, §2, §3

The mark [10] stands for this setting: Table 17-1, 10^-8 M; incubation 70 hr.
Where [11] appears, read: Table 17-1, 10^-8 M; incubation 120 hr.
Setting [12] is: Table 17-1; 3 × 10^-8 M; incubation 70 hr.
Where [13] appears, read: Table 17-1; 3 × 10^-8 M; incubation 120 hr.
The mark [14] stands for this setting: Table 17-1; 10^-8 M; incubation 70 hr.
[15] abbreviates: Table 17-1; 10^-8 M; incubation 120 hr.
Where [16] appears, read: daily dose of 30 nmol (equimolar) i.p. for 12 days.
Setting [17] is: 0 min (during perfusion of 1 nM somatostatin analog), percentage of GH release before analog.
The mark [18] stands for this setting: 30 min after infusion of 1 nM somatostatin analog.
Where [19] appears, read: 60 min after infusion of 1 nM somatostatin analog.
Setting [20] is: single i.p. injection 650 nmol/20 g.
Setting [21] is: single i.p. injection 700 nmol/20 g.
Setting [22] is: single i.p. injection 750 nmol/20 g.

Read-outs that look alike come from different tables or passages of the source. Where a SMILES comes first, the peptide text is derived from it. Bridges are numbered along the chain shown (N, C = ends). [ ]: non-standard residue; d: D form.

We go through four compounds from patent US6184374A, “Targeted cytotoxic anthracycline analogs” (priority 1998, dated 2001).

For `COc1cccc2c1C(=O)c1c(O)c3c(c(O)c1C2=O)C[C@@](O)(C(=O)CO)C[C@@H]3O[C@H]1C[C@H](N2CCCC2)[C@H](O)[C@H](C)O1.O=C(O)C(F)(F)F` [Compound Q2, 3'-deamino-3'-(pyrrolidine-1"-yl)doxorubicin], the “T/C Value” was -26 in [1] (setting [10]); -19 in [1] (setting [11]); 25 in data set [1] (setting [12]); 17 in data set [1] (setting [13]); 97 in [1] (setting [14]); 94 in [1] (setting [15]). Besides, the “Effect on tumor growth” value in data set [2] (setting [16]) is listed as “strong inhibitory effect on tumor growth”; in [3] (20 nmol daily dose for 17 days) it was “only a moderate inhibitory effect on tumor growth”. Besides, the “Mean survival after transplantation” value in data set [2] (setting [16]) is given as 17.9 days. Moreover, the “Mean tumor volume on day 10” value in data set [2] (setting [16]) is recorded as 153 mm^3. For the same compound, in data set [2] (setting [16]), the “Mean tumor volume on day 14” value came out at 144 mm^3. The “Mean tumor volume on day 18” value in data set [2] (setting [16]) came to 137 mm^3. Also, the Toxicity result in data set [2] (daily dose of 30 nmol i.p. for 12 days) is listed as “severe toxicity”; in [3] (40 nmol dose), “toxic”. In [3] (40 nmol dose), this compound had a Mean survival of 14.6 days.
`C[C@@H](O)[C@H](NC(=O)[C@@H]1CSSC[C@H](NC(=O)[C@H](N)Cc2c[nH]c3ccccc23)C(=O)N[C@@H](Cc2ccccc2)C(=O)N[C@H](Cc2c[nH]c3ccccc23)C(=O)N[C@@H](CCCCN)C(=O)N[C@@H]([C@@H](C)O)C(=O)N1)C(N)=O` [Compound S-98] (H-[dW]CF[dW]KTCT-NH2; disulfide 2-7): the “T/C Value” in data set [4] (10^-6 M, incubation 28 h) stood at 96; in data set [4] (10^-6 M, incubation 76 h), 98. Further, the “GH release induced by 3 min administration of 1 nM hGH-RH(1-29)NH2” value is given as 2.9% in data set [5] (setting [17]), 94.7% in [5] (setting [18]) and 117.6% in data set [5] (setting [19]).
On the same counts, the results for `CC(C)[C@@H]1NC(=O)[C@H](CCCCN)NC(=O)[C@@H](Cc2c[nH]c3ccccc23)NC(=O)[C@H](Cc2ccc(O)cc2)NC(=O)[C@@H](NC(=O)[C@H](N)Cc2ccccc2)CSSC[C@@H](C(=O)N[C@H](C(N)=O)[C@@H](C)O)NC1=O` [Compound S-121] are 76, 96, 0%, 90% and 89.7%.
Consider `COc1cccc2c1C(=O)c1c(O)c3c(c(O)c1C2=O)C[C@@](O)(C(=O)CO)C[C@@H]3O[C@H]1C[C@H](N)[C@H](O)[C@H](C)O1` [Doxorubicin, doxorubicin], for which the “T/C Value” in [1] (setting [10]) was 54; in data set [1] (setting [11]), 33; in data set [1] (setting [12]) it was 82; in [1] (setting [13]), 66; in data set [1] (setting [14]), 98; in data set [1] (setting [15]), 95. For the same compound, the “T/C Value” came out at 15 in data set [7] (3 × 10^-7 M, incubation 66 h); 10 in data set [7] (3 × 10^-7 M, incubation 95 h); 7 in data set [7] (3 × 10^-7 M, incubation 137 h); 88 in [7] (3 × 10^-8 M, incubation 66 h); 73 in data set [7] (3 × 10^-8 M, incubation 95 h); 49 in [7] (3 × 10^-8 M, incubation 137 h). The “T/C Value” in data set [7] (10^-6 M, incubation 66 h) is given as -7; in data set [7] (10^-6 M, incubation 95 h), -6; in data set [7] (10^-6 M, incubation 137 h), -4; in data set [7] (10^-7 M, incubation 66 h) it was 52; in [7] (10^-7 M, incubation 95 h), 32; in [7] (10^-7 M, incubation 137 h), 20. The “T/C Value” in data set [4] (10^-6 M, incubation 28 h) is recorded as -28; in [4] (10^-6 M, incubation 76 h), -7; in data set [4] (10^-7 M, incubation 28 h) it was 64; in data set [4] (10^-7 M, incubation 76 h), 10; in [4] (10^-8 M, incubation 28 h), 95; in data set [4] (10^-8 M, incubation 76 h), 71. Besides, the “T/C Value on MCF-7 Cell Line” value in [1] (Table 18-1; 3 × 10^-8 M; 70 hr) turned out to be 82; in data set [1] (Table 18-1; 3 × 10^-8 M; 120 hr), 66; in [1] (Table 18-1; 10^-7 M; 70 hr) it was 54; in [1] (Table 18-1; 10^-7 M; 120 hr), 33; in data set [1] (Table 18-1; 10^-8 M; 70 hr), 98; in [1] (Table 18-1; 10^-8 M; 120 hr), 95. Also, the Average survival in data set [6] came out at 20 days; in [6] (listed as DOX) it was 20.0 days; in data set [8] (setting [20]) it was 13.6 days; in data set [8] (setting [21]), 15.2 days; in data set [8] (setting [22]), 7.8 days. The “Eradication of the tumor” value in data set [6] (toxic dose, total amount 1560 nmol) is reported as “could not eradicate the tumor”. In addition, in [8] (dose of 650 nmol/20 g mouse (as printed in text)), the “Suppression of tumor growth” value is given as “significantly less effective”. The Toxicity result in data set [8] (single dose of 650 nmol/20 g mouse (as printed in text)) is reported as “highly toxic”. For the same compound, the results for the “Number of tumorous mice/number of surviving mice Day 10” value in data set [8] (setting [20]), in data set [8] (setting [21]) and in data set [8] (setting [22]) were 3/3, 2/3 and 1/1, respectively. In addition, the “Number of tumorous mice/number of surviving mice Day 13” value in data set [8] (setting [20]) was 2/2; in [8] (setting [21]), 2/3. Further, the “Number of tumorous mice/number of surviving mice Day 17” value in data set [8] (setting [20]) was 1/1; in data set [8] (setting [21]), 2/2. Besides, the “Number of tumorous mice/number of surviving mice Day 20” value in data set [8] (setting [20]) is on record as 1/1. Also, the “T/C value on MXT cell line” value in [9] (3 × 10^-8 M, 26 hr) was 90; in data set [9] (3 × 10^-8 M, 50 hr) it was 60; in data set [9] (10^-7 M, 26 hr), 59; in data set [9] (10^-7 M, 50 hr), 43; in [9] (10^-8 M, 26 hr), 85; in [9] (10^-8 M, 50 hr), 74.
